Measured values from patent US20070027118A1 (priority 2005, published 2007).

target: 11β-hsd-1 enzyme (Homo sapiens, UniProt P28845); experiment: biochemical; conditions: Table 2; inhibitor 0.1 mM as printed
Protocol: Percentage of inhibition was determined in a 100 mM Triethanolamine buffer, pH 8.0, 200 mM NaCl, 0.02% n-dodecyl β-D-maltoside and 5 mM β-ME. A typical reaction was carried on a Corning® u-bottom 96-well plate and is described as follows: 11β-hsd-1 enzyme (5 nM, final concentration) was pre-incubated in the presence of the inhibitor and NADPH (500 μM, final concentration) for at least 30 minutes
in the assay buffer. When pre-incubation was completed, the reaction was initiated by adding the regenerating system (2 mM Glucose-6-Phosphate, 1U/mL Glucose-6-Phosphate dehydrogenase, and 6 mM MgCl2, all the concentration reported are final in the assay buffer), and 3H-cortisone (200 nM, final concentration). After 60 minutes, 60 μL of the assay mixture was transferred to a second 96-well plate and mixed with an equal volume of dimethylsulfoxide to stop the reaction. A 15 μL aliquot from the reaction mixture was loaded into a C-18 column (Polaris C18-A, 50×4.6 mm, 5 μ, 180 Angstrom from Varian) connected to an automated High-throughput Liquid Chromatography instrument developed by Cohesive Technologies Inc of Franklin, Mass., with a […] model 3 Radio-HPLC detector from IN/US of Tampa, Fla. The substrate and product peaks were separated by using an isocratic mixture of 43:57 methanol to water (v/v) at a flow rate of 1.0 mL/min.
Percent Inhibition was calculated based on the following equation: (1-(3H-Cortisol peak area in the […] of inhibitor)×100).

Sequence of 11β-hsd-1 enzyme (P28845 whole entry, species assumed): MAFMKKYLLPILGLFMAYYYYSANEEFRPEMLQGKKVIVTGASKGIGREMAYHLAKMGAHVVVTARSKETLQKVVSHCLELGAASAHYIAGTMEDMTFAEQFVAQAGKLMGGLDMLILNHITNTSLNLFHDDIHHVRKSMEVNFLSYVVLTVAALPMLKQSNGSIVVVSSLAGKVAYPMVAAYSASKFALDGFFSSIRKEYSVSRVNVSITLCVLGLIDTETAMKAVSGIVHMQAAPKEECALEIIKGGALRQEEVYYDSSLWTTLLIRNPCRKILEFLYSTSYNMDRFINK

Row | Structure (SMILES) | % Inh @ 0.1 mM [%]
1 | CCc1cccc(NS(=O)(=O)N2C[C@@H]3[C@H](C2)C3(C#N)N2CCOCC2)n1 (some centres unmarked) [Example 115, (1R*5S*6S*)-6-cyano-N-(6-ethylpyridin-2-yl)-6-morpholin-4-yl-3-azabicyclo[3.1.0]hexane-3-sulfonamide] | 0

same assay, conditions: read-out: % Inh @ 0.1 μM

Row | Structure (SMILES) | inhibition at 0.1 µM [%]
2 | Cc1cccc(NS(=O)(=O)N2CCN(c3ncccc3C)CC2)n1 [Example 4] | 26.6
3 | Cc1cccc(NS(=O)(=O)N2CCN(c3ncccc3C(F)(F)F)CC2)n1 [Example 5] | 44.6
4 | Cc1ccnc(N2CCN(S(=O)(=O)Nc3cccc(C)n3)CC2)c1 [Example 6] | 56.2
5 | Cc1cccc(NS(=O)(=O)N2CCN(Cc3ccccc3)CC2)n1 [Example 7] | 17.7
6 | Cc1cccc(NS(=O)(=O)N2CCOCC2c2ccc(F)cc2)n1 (centres unmarked) [Example 21] | 10.6
7 | Cc1cccc(NS(=O)(=O)N2C[C@H]3C[C@@H]2CN3c2ccc(C#N)cn2)n1 [Example 24] | 0
8 | O=S(=O)(Nc1ccc2ncccc2n1)N1CCC(c2ccc(C(F)(F)F)cn2)CC1 [Example 36, N-1,5-naphthyridin-2-yl-4-[5-(trifluoromethyl)pyridin-2-yl]piperidine-1-sulfonamide] | 89
9 | C[C@@H]1CN(S(=O)(=O)Nc2cccc(CO)n2)CCN1c1ncc(F)cn1 [Example 40, (3R)-4-(5-fluoropyrimidin-2-yl)-N-[6-(hydroxymethyl)pyridin-2-yl]-3-methylpiperazine-1-sulfonamide] | 100
10 | Cc1cc(C)nc(NS(=O)(=O)N2CCc3ccc(S(C)(=O)=O)cc3CC2)c1 [Example 41] | 55
11 | Cc1cc(N)nc(NS(=O)(=O)N2CCn3c(nc4cc(C(F)(F)F)ccc43)C2)c1 [Example 47] | 100
12 | Cc1cc(N)nc(NS(=O)(=O)N2CCn3c(nc4cc(Cl)ccc43)C2)c1 [Example 48] | 100
13 | Cc1cc(N)nc(NS(=O)(=O)N2CCn3c(nc4cccc(C)c43)C2)c1 [Example 49] | 100
14 | Cc1cc(N)nc(NS(=O)(=O)N2CCn3c(nc4ccccc43)C2)c1 [Example 50] | 100
15 | Cc1cc(N)nc(NS(=O)(=O)N2CCn3cc(C(F)(F)F)nc3C2)c1 [Example 51] | 38
16 | Cc1cc(N)nc(NS(=O)(=O)N2CCn3c(-c4ccccc4)cnc3C2)c1 [Example 52] | 100
17 | Cc1cc(N)cc(NS(=O)(=O)N2CCC(Oc3ccccc3F)CC2)c1 [Example 53] | 100
18 | Cc1cc(N)cc(NS(=O)(=O)N2CCC(Oc3cccc(F)c3)CC2)c1 [Example 54] | 100
19 | Cc1cc(N)cc(NS(=O)(=O)N2CCC(Oc3ccccc3)CC2)c1 [Example 55] | 92
20 | Cc1cc(N)cc(NS(=O)(=O)N2CCC(C(F)(F)F)CC2)c1 [Example 56] | 100
21 | C[C@H]1CN(S(=O)(=O)Nc2cccc(CO)n2)CCN1c1ccc(C#N)cn1 [Example 58, (3S)-4-(5-cyanopyridin-2-yl)-N-[6-(hydroxymethyl)pyridin-2-yl]-3-methylpiperazine-1-sulfonamide] | 100
22 | CC1CN(c2ccc(C#N)cn2)CCN1S(=O)(=O)Nc1cccc(CO)n1 (centres unmarked) [Example 59, 4-(5-cyanopyridin-2-yl)-N-[6-(hydroxymethyl)pyridin-2-yl]-2-methylpiperazine-1-sulfonamide] | 94.2
23 | CCc1cccc(NS(=O)(=O)N2CCC(c3ncccn3)CC2)n1 [Example 60, N-(6-ethylpyridin-2-yl)-4-pyrimidin-2-ylpiperidine-1-sulfonamide] | 7
24 | CCc1cccc(NS(=O)(=O)N2CCN(C(C)C)CC2)n1 [Example 61] | 0
25 | CCc1cccc(NS(=O)(=O)N2CCN(C3CCCCC3)CC2)n1 [Example 62] | 0
26 | CCc1cccc(NS(=O)(=O)N2CCC3(CCc4cc(Cl)ccc4O3)CC2)n1 [Example 63] | 40
27 | CCc1cccc(NS(=O)(=O)N2CCC3(CCc4cc(C)ccc4O3)CC2)n1 [Example 64] | 5.4
28 | CCc1cccc(NS(=O)(=O)N2CCC3(CC2)CC(=O)c2cc(Cl)ccc2O3)n1 [Example 65] | 4.7
29 | CCc1cccc(NS(=O)(=O)N2CCC3(CCc4ccccc4O3)CC2)n1 [Example 66] | 42.8
30 | CCc1cccc(NS(=O)(=O)N2CCC(c3c[nH]c4ccccc34)CC2)n1 [Example 67] | 62.6
31 | CCc1cccc(NS(=O)(=O)N2C[C@@H]3C[C@H]2CN3c2ccccc2)n1 [Example 69] | 5.6

same assay, conditions: read-out: % Inh @ 0.1 mM

Row | Structure (SMILES) | inhibition [%]
32 | Cc1ccc(C2(C)CN(S(=O)(=O)Nc3cccc(C)n3)CCO2)cc1 (centres unmarked) [Example 70, 2-methyl-2-(4-methylphenyl)-N-(6-methylpyridin-2-yl)morpholine-4-sulfonamide] | 85.3
33 | CCc1cccc(NS(=O)(=O)N2CCCC(c3nc(C)no3)C2)n1 (centres unmarked) [Example 72, N-(6-ethylpyridin-2-yl)-3-(2-methyl-124-oxadiazol-5-yl)piperidine-1-sulfonamide] | 56.7
34 | CCc1cccc(NS(=O)(=O)N2CCC(c3cccc(C(=O)Nc4ccccn4)c3)CC2)n1 [Example 73, 3-(1-{[(6-ethylpyridin-2-yl)amino]sulfonyl}pipendin-4-yl)-N-pyridin-2-ylbenzamide] | 49.6
35 | CCc1cccc(NS(=O)(=O)N2CCC(c3cccc(C(N)=O)c3)CC2)n1 [Example 75, 3-(1-{[(6-ethylpyridin-2-yl)amino]sulfonyl}piperidin-4-yl)benzamide] | 45.6
36 | CCc1cccc(NS(=O)(=O)N2CCC(c3ccc(C(=O)NC)cc3)CC2)n1 [Example 76, 4-(1-{[(6-ethylpyridin-2-yl)amino]sulfonyl}piperidin-4-yl)-N-methylbenzamide] | 34.4
37 | CCc1cccc(NS(=O)(=O)N2CCC(c3ccc(C(=O)N4CCOCC4)cc3)CC2)n1 [Example 77, N-(6-ethylpyridin-2-yl)-4-[4-(morpholin-4-ylcarbonyl)phenyl]piperi-din-1-sulfonamide] | 48.4
38 | CCc1cccc(NS(=O)(=O)N2CCC(c3ccc(C(=O)NC4CC4)cc3)CC2)n1 [Example 78, N-cyclopropyl-4-(1-{[(6-ethylpyridin-2-yl)amino]sulfonyl}piperi-din-4-yl)benzamide] | 64.2
39 | CCc1cccc(NS(=O)(=O)N2CCC(c3cccc(C(=O)N(CC)CC)c3)CC2)n1 [Example 79, NN-diethy-3-(1-{[(6-ethylpyridin-2-yl)amino]sulfonyl}piperidin-4-yl)benzamide] | 51.1
40 | CCc1cccc(NS(=O)(=O)N2CCC(COCc3ccccc3F)CC2)n1 [Example 92, N-(6-ethylpyridin-2-yl)-4-{[(2-fluorobenzyl)oxy]meth-yl}piperidine-1-sulfonamide] | 67.5
41 | CCc1cccc(NS(=O)(=O)N2CCC(COCc3cccc(OC)c3)CC2)n1 [Example 94, N-(6-ethylpyridin-2-yl)-4-{[(3-methoxybenzyl)oxy]-methyl}pipendine-1-sulfonamide] | 40.7
42 | CCc1cccc(NS(=O)(=O)N2CCC(n3c(C)nnc3CC)CC2)n1 [Example 107, 4-(3-ethyl-5-methyl-4H-124-triazol-4-yl)-N-(6-ethyl-pyridin-2-yl)piperidine-1-sulfonamide] | 0
43 | CCOCC1CCN(S(=O)(=O)Nc2cccc(CC)n2)CC1 [Example 109, 4-(ethoxymethyl)-N-(6-ethylpyridin-2-yl)pipendine-1-sulfonamide] | 58.7
44 | CCc1cccc(NS(=O)(=O)N2CCC(Oc3ccc(C#N)cc3OC)CC2)n1 [Example 110, 4-(4-cyano-2-methoxy-phenoxy)-N-(6-ethylpyridin-2-yl)piperidine-1-sulfonamide] | 8
45 | CCCOC1CCN(S(=O)(=O)Nc2cccc(CC)n2)CC1 [Example 111, N-(6-ethylpyridin-2-yl)-4-propoxypiperidine-1-sulfonamide] | 50.8
46 | Cc1cccc(NS(=O)(=O)N2CCN(c3ccccn3)CC2)n1 [Example 126, N-(6-methylpyridin-2-yl)-4-pyridin-2-ylpiperazine-1-sulfonamide] | 57.8
47 | Cc1cccc(NS(=O)(=O)N2CCCCCC2)n1 [Example 130, N-(6-methylpyridin-2-yl)azepane-1-sulfonamide] | 56.7
48 | Cc1cccc(NS(=O)(=O)N2CCN(c3cc(C#N)ccn3)CC2)n1 [Example 135, 4-(4-cyanopyridin-2-yl)-N-(6-methylpyridin-2-yl)piperazine-1-sulfonamide] | 29.9
49 | CCc1cccc(NS(=O)(=O)N2CCN(Cc3c(F)cccc3F)CC(COC)C2)n1 (centres unmarked) [Example 141, 4-(26-difluorobenzyl)-N-(6-ethylpyridin-2-yl)-6-(methoxymethyl)-14-diazepane-1-sulfonamide] | 13.8
50 | CCc1cccc(NS(=O)(=O)N2CCN(C)CC(COCc3c(F)cccc3F)C2)n1 (centres unmarked) [Example 142, 6-{[(26-difluoro-benzyl)oxy]methyl)-N-(6-ethylpyridin-2-yl)-4-methyl-14-diazepane-1-sulfonamide] | 5.9
